{"source": "ChEMBL document CHEMBL1148172", "about": "“A New Diterpene from a Soft Coral, Sinularia dissecta” (J Nat Prod, 1993)", "target": "T1, Acetylcholinesterase (Rattus norvegicus, UniProt P37136)", "T1 sequence (P37136 whole entry)": "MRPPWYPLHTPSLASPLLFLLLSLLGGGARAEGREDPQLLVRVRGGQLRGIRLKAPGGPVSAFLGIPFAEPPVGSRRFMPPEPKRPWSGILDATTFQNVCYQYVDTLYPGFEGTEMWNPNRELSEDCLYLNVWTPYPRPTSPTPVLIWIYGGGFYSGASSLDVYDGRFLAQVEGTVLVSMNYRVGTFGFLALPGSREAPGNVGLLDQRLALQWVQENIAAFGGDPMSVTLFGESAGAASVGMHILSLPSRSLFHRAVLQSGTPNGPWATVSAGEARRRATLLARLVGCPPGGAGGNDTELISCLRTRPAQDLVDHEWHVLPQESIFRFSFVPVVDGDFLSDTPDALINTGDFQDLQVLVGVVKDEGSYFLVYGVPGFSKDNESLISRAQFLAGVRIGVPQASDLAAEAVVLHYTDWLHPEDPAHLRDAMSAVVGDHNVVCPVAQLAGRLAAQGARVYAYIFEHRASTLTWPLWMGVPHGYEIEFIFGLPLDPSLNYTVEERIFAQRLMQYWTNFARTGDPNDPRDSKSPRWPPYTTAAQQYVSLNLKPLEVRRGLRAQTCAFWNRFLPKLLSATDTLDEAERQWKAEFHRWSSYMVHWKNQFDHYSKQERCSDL", "assay": "Inhibition of Wistar rat brain AChE", "conditions": "read-out: I50"}
{"smiles": "C=C(C)[C@H]1C/C=C(/C(=O)OC)C(O)C(=O)C[C@@](C)(O)CC2=CC(C(=O)OC)=C(C1)O2", "note": "(stereo partly specified)", "values": [{"measurement": "IC50", "value": 63, "unit": "µM"}]}
